Assay results taken from patent US20220306653A1, “MACROCYCLIC INHIBITORS OF MCL-1” (Janssen Pharmaceutica NV, priority 2019, published 2022).
Where “and” joins values, the source holds several entries; their conditions need not be identical. Equal entries are not always repeated. Where two headings read alike, the source gives them in different places.

Columns and labels:
[1] = system: MOLP-8 human multiple myeloma cell line; assay: MOLP8 Caspase-Glo 3/7 luminescent assay; assay type: cell-based; conditions: 2 hours incubation, averaged values over all runs on all batches
Source text: (§1) MCL-1 is a regulator of apoptosis and is highly over-expressed in tumor cells that escape cell death. The assay evaluates the cellular potency of small-molecule compounds targeting regulators of the apoptosis pathway, primarily MCL-1, Bfl-1, Bcl-2, and other proteins of the Bcl-2 family. Protein-protein inhibitors disrupting the interaction of anti-apoptotic regulators with BH3-domain proteins initiate apoptosis.
The Caspase-Glo® 3/7 Assay is a luminescent assay that measures caspase-3 and -7 activities in purified enzyme preparations or cultures of adherent or suspension cells. The assay provides a proluminescent caspase-3/7 substrate, which contains the tetrapeptide sequence DEVD. This substrate is cleaved to release aminoluciferin, a substrate of luciferase used in the production of light. Addition of the single Caspase-Glo® 3/7 Reagent in an “add-mix-measure” format results in cell lysis, followed by caspase cleavage of the substrate and generation of a “glow-type” luminescent signal.
This assay uses the MOLP-8 human multiple myeloma cell line, which is sensitive to MCL-1 inhibition.
Cell cultures were maintained between 0.2 and 2.0×10^6 cells/mL. The cells were harvested by collection in 50 mL conical tubes. The cells were then pelleted at 500 g for 5 mins before removing supernatant and resuspension in fresh pre-warmed culture medium. The cells were counted and diluted as needed.
The assay reagent was prepared by transferring the buffer solution to the substrate vial and mixing. The solution may be stored for up to 1 week at 4° C. with negligible loss of signal.
Compounds were delivered in assay-ready plates (Proxiplate) and stored at −20° C.
Assays always include 1 reference compound plate containing reference compounds. The plates were spotted with 40 nL of compounds (0.5% DMSO final in cells; serial dilution; 30 μM highest conc. ⅓ dilution, 10 doses, duplicates). The compounds were used at room temperature and 4 μL of pre-warmed media was added to all wells except column 2 and 23. The negative control was prepared by adding 1% DMSO in media. The positive control was prepared by adding the appropriate positive control compound in final concentration of 60 μM in media. The plate was prepared by adding 4 μL negative control to column 23, 4 μL positive control to column 2 and 4 μL cell suspension to all wells in the plate. The plate with cells was then incubated at 37° C. for 2 hours. The assay signal reagent is the Caspase-Glo solution described above, and 8 μL was added to all wells. The plates were then sealed and measured after 30 minutes.
The activity of a test compound was calculated as percent change in apoptosis induction as follows:
LC=median of the Low Control values • =Central Reference in Screener • =DMSO • =0% ΠC=Median of the High Control values • =Scale Reference in Screener • =30 pM of positive control • =100% apoptosis induction
% Effect (AC50)=100−(sample−LC)/(HC−LC)*100
% Control=(sample/HC)*100
% Control min=(sample−LC)/(HC−LC)*100

[2] = system: Molp8 multiple myeloma cell line; assay: Molp8 multiple myeloma cell line survival assay using Annexin V and 7AAD; assay type: cell-based, human; conditions: live cell percent by Annexin V/7AAD flow cytometry, 3 days incubation, each independent run listed individually, read-out: MOLP8 Apoptosis IC50
Source text: Molp8 multiple myeloma cell line survival assay using Annexin V and 7AAD.
The Annexin V/7AAD principle is based on the location of phosphatidylserine in the plasma membrane and the integrity of the membrane barrier. During early apoptosis, phosphatidylserine loses its normal distribution patterns in the inner leaflet of the plasma membrane and appears on the exterior of the plasma membrane. Annexin proteins are calcium dependent phospholipid binding proteins and can bind phosphatidylserine on the outer membrane during cell death. The viability dye 7AAD is excluded from entering cells with intact plasma membranes but accumulates in cells that have lost membrane integrity. Annexin Fitc is excited by the 488 nm laser (max excitation: 490 nm, max emission: 525 nm) as is 7AAD (excitation: 488 nm, emission: 650 nm), which allows this assay to be completed on any multicolor flow cytometer.
The assay conditions were optimized using the following 1× reaction buffer: 5 mM HEPES (4-(2-hydroxyethyl)-1-piperazineethanesulfonic acid), 70 mM NaCl, 1.25 mM CaCl2, pH 7.4.
The Molp 8 cells were multiple myeloma, human, in suspension (*cells were counted 2× per week and culture density maintained between 0.5 and 1.5×10^6 cells per ml).
On Day 1, 5×10^4 live cells per well were plated in a 96-well U-bottom plate, with the cells plated in 100 uL RPMI+10% FBS. An 11-point compound dilution plate was prepared in 3-fold steps (Final concentration range 10 μM-0.1 nM) and added at a concentration of 1 μL per well. The plate was then incubated for 3 days at 37° C. and 5% CO2.
On Day 4, the cells were pelleted and the media discarded. The cells were then resuspended in 50 μL AnnexinV-Fitc (1:40 dilution) and 7AAD (1:100 dilution) in Annexin binding buffer, then incubated for 30 min @ room temperature in the dark. 50 μL binding buffer (100 uL total volume) was then added to the cells. There was no wash step required.
Within 2 hours, PeCy5 (7AAD) and Fitc (Annexin) channels were recorded using BD Canto, collecting a minimum per singlet of 10,000 events.
The activity of a test compound was calculated based on the live cell percentage. • LC=Median of the low control values • =Low control: cells without treatment (no greater than 100% live) • HC=Median of the high control values • =High control: cells treated with 10 uM drug (no less than 0% live)
A best-fit curve was fitted by a minimum sum of squares method to the plot of live cell percent vs. compound concentration. From this an IC50 value (inhibitory concentration causing 50% cytotoxicity) was obtained. An estimate of the slope of the plot in terms of the Hill coefficient was also obtained.

MOLP8 cells = assay: MOLP8 CellEvent Caspase-3/7 Green apoptosis activation assay (IncuCyte live-cell kinetic readout); assay type: cell-based; conditions: each independent run listed
Protocol: as §1
Activation of the apoptotic pathway was measured using the CellEvent™ Caspase-3/7 Green ReadyProbes™ Reagent (Thermo Fisher C10423, C10723). This assay produces a green fluorescent stain in cells that enter the apoptosis pathway. CellEvent® Caspase-3/7 Green reagent is a four amino acid peptide (DEVD) conjugated to a nucleic acid-binding dye that is non-fluorescent when not bound to DNA. The CellEvent® Caspase-3/7 Green reagent is intrinsically non-fluorescent, as the DEVD peptide inhibits binding of the dye to DNA. Upon activation of caspase-3/7 in apoptotic cells, the DEVD peptide is cleaved and the free dye can bind DNA, generating a bright green fluorescence. The activation of Caspase-3 and Caspase-7 is downstream of inhibition of MCL-1 or other apoptosis inhibiting proteins in cell lines that are dependent on them.
The live-cell readout on the IncuCyte permits tracking over time of the Caspase activation. […] The IncuCyte readout also allows one to normalize for cell number, as the suspension cells are hard to distribute evenly.
Signals were measured every 2 h for a duration of 22 h. The ratio of the Caspase mask to the Confluence mask, per image, as raw data, was calculated and the kinetic trace for every well was exported to Genedata Screener for analysis.
In Genedata Screener values for 6 h, 12 h, and 22 h from the kinetic traces were extracted. The values were normalized against negative controls (untreated cells). A standard dose-response analysis was performed on the normalized data.
The following data was reported at each of the following three aforementioned time points: (a) The dose-response curve, (b) The qAC50 and qAC50 Mode, and (c) Max Activity.
Cells were maintained in culture medium containing 10% Heat Inactivated (HI) FBS, 2 mM L-Glutamine and 50 µg/mL Gentamycin phenol red free RPMI-1640. Cells were split at 0.4 million/mL twice a week.
On Day 1, plates containing individual wells with test compounds at 10 mM concentration, 150 nL per well. The final concentrations range from […] compound (and no compound control) and compounds were thawed at room temperature for 1 hour. 25 μl of prewarmed medium was added into each well by multidrop (column 1, 3-22, 24), followed by addition of DMSO control (0.6% DMSO) in column 2. The plate was sealed using Breathe-Easy® sealing membrane and shaken for 30 min at room temperature to dissolve the test compound(s) in medium. The plate was then kept in the incubator for 1 hour at 37° C., 5% CO2.
MOLP8 cells in medium at […] (20000/50 μl final in assay) were prepared with CellEvent™ Caspase-3/7 Green Detection Reagent at 4 μM (2 μM final in assay). Once prepared, the cells were added to the test compound plate in an amount of 20000 and the plate was immediately placed in the IncuCyte and imaging started using following settings: 10× objective, 2 s exposure time in green channel, interval of 2 h, acquisition stopped after 22 h.
For analysis in IncuCyte, a Basic Analysis protocol was defined to calculate the “confluence” and “caspase” areas from the “Phase” and “green” images, respectively, as follows: (a) Confluence: Segmentation Adjustment 1, Hole Fill 0, Adjust Size −2, No filters (b) Caspase: Top-Hat segmentation, Radius 10, Threshold 0.3 GCU, Edge Split On with sensitivity 0, Hole Fill 0, Adjust Size 1, and filter on a minimum Area of 20 μm^2. The analyzer is trained on a sufficient number of positive and negative control wells, as well as compound treated wells, verifying that the “confluence” layer detects both live and dead (condensed) cells. […]

[3] = Homo sapiens, MOLP-8, 6 h, 6 h, read-out: MOLP8 Caspase 3/7 AC50 at 6 h
[4] = Homo sapiens, MOLP-8, 12 h, 12 h, read-out: MOLP8 Caspase 3/7 AC50 at 12 h

Row | Compound | AC50 ([1]; Homo sapiens, MOLP-8, 2 h) | AC50 [1] | other results
1 | Cc1c(C(=O)O)n2c3ccc(Cl)c(c13)-c1c(nn(C)c1C)CN(C)Cc1cc(n(C)n1)CSc1cc(c3ccccc3c1)OCCC2 (single isomer, unassigned) [Compound 5] | 14500 nM | – | –
2 | Cc1c(C(=O)O)n2c3ccc(Cl)c(c13)-c1c(nn(C)c1C)CSCc1cc([nH]n1)CSc1cc(c3ccccc3c1)OCCC2 (single isomer, unassigned) [Compound 7] | 70 nM | – | –
3 | Cc1c(C(=O)O)n2c3ccc(Cl)c(c13)-c1c(nn(C)c1C)CSCc1cc([nH]n1)CSc1cc(c3ccccc3c1)OCCC2 (single isomer, unassigned) [Compound 8] | – | 90 nM | –
4 | CCn1nc2cc1CSc1cc(c3ccccc3c1)OCCCn1c(C(=O)O)c(C)c3c(c(Cl)ccc31)-c1c(nn(C)c1C)CSC2 (single isomer, unassigned) [Compound 10] | 120 nM | – | –
5 | CCn1nc2cc1CSCc1nn(C)c(C)c1-c1c(Cl)ccc3c1c(C)c(C(=O)O)n3CCCOc1cc(cc3ccccc13)SC2 (single isomer, unassigned) [Compound 11] | > 30000 nM | – | –
6 | Cc1c(C(=O)O)n2c3ccc(Cl)c(c13)-c1c(nn(C)c1C)CSCc1cc(n(C(C)C)n1)CSc1cc(c3ccccc3c1)OCCC2 (single isomer, unassigned) [Compound 12] | 510 nM | – | –
7 | Cc1c(C(=O)O)n2c3ccc(Cl)c(c13)-c1c(nn(C)c1C)CSCc1cc(nn1C(C)C)CSc1cc(c3ccccc3c1)OCCC2 (single isomer, unassigned) [Compound 13] | 1250 nM | – | –
8 | Cc1[nH]nc2c1-c1c(Cl)ccc3c1c(C)c(C(=O)O)n3CCCOc1cc(cc3ccccc13)SCc1cc(nn1C)CN(C)C2 (single isomer, unassigned) [Compound 14] | – | 920 nM | –
9 | Cc1[nH]nc2c1-c1c(Cl)ccc3c1c(C)c(C(=O)O)n3CCCOc1cc(cc3ccccc13)SCc1cc(nn1C)CN(C)C2 (single isomer, unassigned) [Compound 15] | – | 15300 nM | –
10 | Cc1[nH]nc2c1-c1c(Cl)ccc3c1c(C)c(C(=O)O)n3CCCOc1cc(cc3ccccc13)SCc1cc(nn1C)CSC2 (single isomer, unassigned) [Compound 16] | – | 540 nM | –
11 | Cc1[nH]nc2c1-c1c(Cl)ccc3c1c(C)c(C(=O)O)n3CCCOc1cc(cc3ccccc13)SCc1cc(nn1C)CSC2 (single isomer, unassigned) [Compound 17] | – | 21300 nM | –
12 | Cc1c(C(=O)O)n2c3ccc(Cl)c(c13)-c1c(nn(C)c1C)CN(C)Cc1cc(n(C)n1)CSc1cc(c3ccccc3c1)OCCC2 [Compound 3, 15-chloro-13,21,25,61,4-pentamethyl-11H,21H,61H-10-oxa-8-thia-4-aza-1(4,1)-indola-2(4,3),6(3,5)-dipyrazola-9(3,1)-naphthalenacyclotridecaphane-12-carboxylic acid] | – | – | IC50 ([2]; Homo sapiens, MOLP-8, 72 h): 200 nM; IC50 [2]: 256 nM; AC50 (MOLP8 cells; 6 h, read-out: MOLP8 Caspase 3/7 AC50 at 6 h): 178 nM and 251 nM; AC50 (MOLP8 cells; 12 h, read-out: MOLP8 Caspase 3/7 AC50 at 12 h): 263 nM and 195 nM; AC50 (MOLP8 cells; [3]): 347 nM; AC50 (MOLP8 cells; [4]): 363 nM
13 | Cc1c(C(=O)O)n2c3ccc(Cl)c(c13)-c1c(nn(C)c1C)CNCc1cc(n(C)n1)CSc1cc(c3ccccc3c1)OCCC2 [Compound 4, 15-Chloro-13,21,25,61-tetramethyl-11H,21H,61H-10-oxa-8-thia-4-aza-1(4,1)-indola-2(4,3),6(3,5)-dipyrazola-9(3,1)-naphthalenacyclotridecaphane-12-Carboxylic acid] | 920 nM | – | AC50 (MOLP8 cells; [3]): 1620 nM; AC50 (MOLP8 cells; [4]): 1590 nM; AC50 (MOLP8 cells; Homo sapiens, MOLP-8, 22 h, 22 h, read-out: MOLP8 Caspase 3/7 AC50 at 22 h): 1380 nM
14 | Cc1c(C(=O)O)n2c3ccc(Cl)c(c13)-c1c(nn(C)c1C)CN(C(C)C)Cc1cc(n(C)n1)CSc1cc(c3ccccc3c1)OCCC2 [Compound 9] | 160 nM | – | –
